# Measurements: ChEMBL document CHEMBL3885881, “DrugMatrix”
# Species on record: Rattus norvegicus
# Experiment: DrugMatrix - Regimen: Daily Repeat
# Assay type: toxicity, organism-based, Sprague-Dawley
# Design: regimen Daily Repeat, gender Male, age 6-8 weeks
# Details: in vivo, po, route oral GAVAGE, vehicle 100 % WATER; for BASOPHIL / EOSINOPHIL / ERYTHROCYTE COUNT / HEMATOCRIT / HEMOGLOBIN / LEUKOCYTE COUNT / LYMPHOCYTE / MEAN CORPUSCULAR HEMOGLOBIN / MEAN CORPUSCULAR HEMOGLOBIN CONCENTRATION / MEAN CORPUSCULAR VOLUME / MONOCYTE / NEUTROPHIL / PLATELET COUNT: tissue Blood; for ALANINE AMINOTRANSFERASE / ALBUMIN / ALKALINE PHOSPHATASE / ASPARTATE AMINOTRANSFERASE / BLOOD UREA NITROGEN / CHLORIDE / CHOLESTEROL / CREATINE PHOSPHOKINASE / CREATININE / GLUCOSE / PHOSPHORUS / POTASSIUM / SODIUM / TOTAL BILIRUBIN / TOTAL PROTEIN: tissue Plasma
# [1] = 0 mg/kg, 72 h, dose level Control, time 3 day
# [2] = 0 mg/kg, 120 h, dose level Control, time 5 day
# [3] = 45 mg/kg, 72 h, dose level Low, time 3 day
# [4] = 45 mg/kg, 120 h, dose level Low, time 5 day
compound,measurement,setting,value
Nc1ccc(S(=O)(=O)Nc2ncccn2)cc1 [SULFADIAZINE],BASOPHIL,[1],0%
same,EOSINOPHIL,[1],0.5%
same,ERYTHROCYTE COUNT,[1],5.8 x10E6/uL
same,HEMATOCRIT,[1],35.07%
same,HEMOGLOBIN,[1],14.12 G/DL
same,LEUKOCYTE COUNT,[1],13.7 x10E3/uL
same,LYMPHOCYTE,[1],82.33%
same,MEAN CORPUSCULAR HEMOGLOBIN,[1],24.38 pg
same,MEAN CORPUSCULAR HEMOGLOBIN CONCENTRATION,[1],40.28 G/DL
same,MEAN CORPUSCULAR VOLUME,[1],60.52 fL
same,MONOCYTE,[1],2.67%
same,NEUTROPHIL,[1],14.5%
same,PLATELET COUNT,[1],911.5 x10E3/uL
same,ALANINE AMINOTRANSFERASE,[1],36.83 u/L
same,ALBUMIN,[1],3.75 G/DL
same,ALKALINE PHOSPHATASE,[1],399.83 u/L
same,ASPARTATE AMINOTRANSFERASE,[1],66 u/L
same,BLOOD UREA NITROGEN,[1],14.67 mg/dL
same,CHLORIDE,[1],101.67 MEQ/L
same,CHOLESTEROL,[1],66.33 mg/dL
same,CREATINE PHOSPHOKINASE,[1],139.5 u/L
same,CREATININE,[1],0.92 mg/dL
same,GLUCOSE,[1],175 mg/dL
same,PHOSPHORUS,[1],11.42 mg/dL
same,POTASSIUM,[1],7.03 MEQ/L
same,SODIUM,[1],148.5 MEQ/L
same,TOTAL BILIRUBIN,[1],1.13 mg/dL
same,TOTAL PROTEIN,[1],6.87 G/DL
same,BASOPHIL,[2],0%
same,EOSINOPHIL,[2],0.2%
same,ERYTHROCYTE COUNT,[2],6.02 x10E6/uL
same,HEMATOCRIT,[2],36.48%
same,HEMOGLOBIN,[2],14.38 G/DL
same,LEUKOCYTE COUNT,[2],12.34 x10E3/uL
same,LYMPHOCYTE,[2],83%
same,MEAN CORPUSCULAR HEMOGLOBIN,[2],23.92 pg
same,MEAN CORPUSCULAR HEMOGLOBIN CONCENTRATION,[2],39.44 G/DL
same,MEAN CORPUSCULAR VOLUME,[2],60.66 fL
same,MONOCYTE,[2],3%
same,NEUTROPHIL,[2],13.8%
same,PLATELET COUNT,[2],1190.6 x10E3/uL
same,ALANINE AMINOTRANSFERASE,[2],43 u/L
same,ALBUMIN,[2],3.73 G/DL
same,ALKALINE PHOSPHATASE,[2],393 u/L
same,ASPARTATE AMINOTRANSFERASE,[2],62.33 u/L
same,BLOOD UREA NITROGEN,[2],16.33 mg/dL
same,CHLORIDE,[2],101.67 MEQ/L
same,CHOLESTEROL,[2],65.5 mg/dL
same,CREATINE PHOSPHOKINASE,[2],130.67 u/L
same,CREATININE,[2],0.58 mg/dL
same,GLUCOSE,[2],180.67 mg/dL
same,PHOSPHORUS,[2],11.28 mg/dL
same,POTASSIUM,[2],7.05 MEQ/L
same,SODIUM,[2],148.17 MEQ/L
same,TOTAL BILIRUBIN,[2],0.72 mg/dL
same,TOTAL PROTEIN,[2],6.83 G/DL
same,BASOPHIL,[3],0%
same,EOSINOPHIL,[3],0%
same,ERYTHROCYTE COUNT,[3],6.15 x10E6/uL
same,HEMATOCRIT,[3],35.77%
same,HEMOGLOBIN,[3],14.2 G/DL
same,LEUKOCYTE COUNT,[3],14.83 x10E3/uL
same,LYMPHOCYTE,[3],84%
same,MEAN CORPUSCULAR HEMOGLOBIN,[3],23.1 pg
same,MEAN CORPUSCULAR HEMOGLOBIN CONCENTRATION,[3],39.67 G/DL
same,MEAN CORPUSCULAR VOLUME,[3],58.17 fL
same,MONOCYTE,[3],2%
same,NEUTROPHIL,[3],14%
same,PLATELET COUNT,[3],1166 x10E3/uL
same,ALANINE AMINOTRANSFERASE,[3],33 u/L
same,ALBUMIN,[3],3.57 G/DL
same,ALKALINE PHOSPHATASE,[3],285 u/L
same,ASPARTATE AMINOTRANSFERASE,[3],56 u/L
same,BLOOD UREA NITROGEN,[3],11.67 mg/dL
same,CHLORIDE,[3],102 MEQ/L
same,CHOLESTEROL,[3],73.33 mg/dL
same,CREATINE PHOSPHOKINASE,[3],134 u/L
same,CREATININE,[3],0.6 mg/dL
same,GLUCOSE,[3],186 mg/dL
same,PHOSPHORUS,[3],11.9 mg/dL
same,POTASSIUM,[3],7 MEQ/L
same,SODIUM,[3],149.67 MEQ/L
same,TOTAL BILIRUBIN,[3],0.3 mg/dL
same,TOTAL PROTEIN,[3],6.33 G/DL
same,BASOPHIL,[4],0%
same,EOSINOPHIL,[4],0.33%
same,ERYTHROCYTE COUNT,[4],6.55 x10E6/uL
same,HEMATOCRIT,[4],40.3%
same,HEMOGLOBIN,[4],15.6 G/DL
same,LEUKOCYTE COUNT,[4],12.63 x10E3/uL
same,LYMPHOCYTE,[4],84%
same,MEAN CORPUSCULAR HEMOGLOBIN,[4],23.9 pg
same,MEAN CORPUSCULAR HEMOGLOBIN CONCENTRATION,[4],38.8 G/DL
same,MEAN CORPUSCULAR VOLUME,[4],61.57 fL
same,MONOCYTE,[4],1%
same,NEUTROPHIL,[4],14.67%
same,PLATELET COUNT,[4],1086.33 x10E3/uL
same,ALANINE AMINOTRANSFERASE,[4],37.67 u/L
same,ALBUMIN,[4],3.9 G/DL
same,ALKALINE PHOSPHATASE,[4],378 u/L
same,ASPARTATE AMINOTRANSFERASE,[4],55.67 u/L
same,BLOOD UREA NITROGEN,[4],12.67 mg/dL
same,CHLORIDE,[4],104 MEQ/L
same,CHOLESTEROL,[4],66.33 mg/dL
same,CREATINE PHOSPHOKINASE,[4],110.67 u/L
same,CREATININE,[4],0.63 mg/dL
same,GLUCOSE,[4],181.67 mg/dL
same,PHOSPHORUS,[4],12.57 mg/dL
same,POTASSIUM,[4],7.23 MEQ/L
same,SODIUM,[4],151.33 MEQ/L
same,TOTAL BILIRUBIN,[4],0.4 mg/dL
same,TOTAL PROTEIN,[4],7.03 G/DL
